Test results taken from patent US8044028B2, “Oligopeptides and their use in cosmetics” (Cognis France S.A.S., priority 2004, dated 2011).
No end group written: not given here. *: point of attachment. Palmitoyl = CCCCCCCCCCCCCCCC(=O)*

What was measured:
human keratinocytes = test: Effects on the growth of human primary keratinocytes (cellular DNA content, ethidium bromide fluorescence); assay type: cell-based; conditions: for DNA after culture for 4-5 days: % based on control (standard medium without additives = 100), average of 3 assays in triplicate; for growth of human keratinocytes (result in words): keratinocytes cultivated from biopsies of adult subjects, activity still detected after 5 days without changing medium; for DNA after culture for 3 days: % based on control = 100
Description: The aim of this test was to analyse the revitalizing and regenerating activities of oligpopeptides according to the invention on human keratinocyte cultures in vitro.
Human keratinocytes were obtained by trypsinization of skin biopsies. They were incubated in standard medium for cell cultures with foetal calf serum (FCS) and growth factors (EGF 10 ng/ml). After cultivation for 2 days at 37° C. and a CO2 content of 5%, the medium was replaced by standard medium with varying concentrations of peptides. […] The fluorescence was determined using a fluorimeter (excitation at 538 nm and emission at 590 nm). The foetal calf serum forms a positive control because it comprises many growth factors, such as, for example, IGF (insulin-like growth factor) and PDGF (platelet derived growth factor).
The results are shown in Table 1 and 2 as the average value from 3 assays in triplicate in % based on a control in which the standard medium comprised no additives.

syndecan-1 = test: Stimulation of the synthesis of syndecan-1 on human keratinocytes (immunocytochemistry, image analysis); assay type: cell-based; conditions: keratinocyte culture, biopsies of adult subjects
Description: Monoclonal antibody anti-syndecan-1 and secondary antibody FITC conjugated were obtained from TEBU, Le Perray en Yvelines and BIO-RAD, Marnes-la-Coquette; KGF (Keratinocyte Growth Factor) (positive control) was obtained from SIGMA, L′Isle d'Abeau Chesnes.
Human keratinocytes were seeded in DMEM standard medium for 2 days at 37° C., CO2=5%. Then, N-Acetyl-Pro-Pro-Tyr-Leu (Seq. ID No. 375) or positive control KGF are introduced and after 5 days of incubation at 37° C., CO2=5%, the synthesis of syndecan-1 was evaluated on glass slides by immunocytochemistry. Quantification of the staining was carried out by image analysis.
The results are shown in table 3 as the mean of the sum±SEM of the product of number of pixels by green detected values (arbitrary unit).

Row | Molecule | DNA after culture for 4-5 days (human keratinocytes; 0.001 % (w/v) peptide) | DNA after culture for 4-5 days (human keratinocytes; 0.003 % (w/v) peptide) | growth of human keratinocytes (result in words) (human keratinocytes) | syndecan-1 expression / synthesis in human keratinocytes (result in words) (syndecan-1) | DNA after culture for 3 days (human keratinocytes; 0.00005 % (w/v) peptide) | DNA after culture for 3 days (human keratinocytes; 0.00015 % (w/v) peptide)
1 | RRRPRPPYLPRPRPP [Example 1] | 124 +/− 15% | 131 +/− 11% | stimulate the growth of human keratinocytes |  |  | 
2 | N-Acetyl-Pro-Pro-Tyr-Leu (Ac-PPYL) [[AA] is Pro-Pro-Tyr-Leu, R1 is Acetyl, and R2 is OH] |  |  |  | stimulates the synthesis of syndecan-1 |  | 
3 | N-Palmitoyl-Pro-Pro-Tyr-Leu (Palmitoyl-PPYL) [Example 7, [AA] is Pro-Pro-Tyr-Leu, R1 is Palmitoyl and R2 is OH] |  |  |  |  | 136 +/− 13% | 135 +/− 8%
4 | Arg-Pro-Pro-Tyr-Leu (RPPYL; peptide derived from cathelicidin PR-39) [Example 3, R1=H, R2=OH] | 97 +/− 1% | 118 +/− 10% | stimulate the growth of human keratinocytes |  |  | 
5 | Pro-Pro-Tyr-Leu (PPYL; peptide derived from cathelicidin PR-39) [Example 4, R1=H, R2=OH] | 150 +/− 26% | 166 +/− 7% | stimulate the growth of human keratinocytes |  |  | 
6 | Pro-Tyr-Leu-Pro-Arg (PYLPR; peptide derived from cathelicidin PR-39) [Example 5, R1=H, R2=OH] | 118 +/− 3% | 112 +/− 5% | stimulate the growth of human keratinocytes |  |  | 
7 | Arg-Arg-Arg-Pro-Arg (RRRPR; peptide derived from cathelicidin PR-39) [Example 2, R1=H, R2=OH] | 119 +/− 6% | 126 +/− 8% | stimulate the growth of human keratinocytes |  |  | 
8 | Tyr-Leu-Pro-Arg-Pro [Example 6] | 110 +/− 6% | 146 +/− 24% | stimulate the growth of human keratinocytes |  |  | 
9 | KGF: KGF (Keratinocyte Growth Factor) (positive control), obtained from SIGMA (protein, UniProt P21781 32-194, looked up) Fibroblast growth factor 7: CNDMTPEQMATNVNCSSPERHTRSYDYMEGGDIRVRRLFCRTQWYLRIDKRGKVKGTQEMKNNYNIMEIRTVAVGIVAIKGVESEFYLAMNKEGKLYAKKECNEDCNFKELILENHYNTYASAKWTHNGGEMFVALNQKGIPVRGKKTKKEQKTAHFLPMAIT |  |  |  | induced an increase of syndecan-1 expression |  | 
